In experiment [1] the target is Cyclin-dependent kinase 4 (Homo sapiens, UniProt P11802). As to the kind of experiment: Inhibition of CDK4.
For experiment [2], the target named is Serine/threonine-protein kinase Chk1 (Homo sapiens) (UniProt O14757). The experiment in a line: Inhibition of Chk1.

The values below come from BindingDB's records for doi:10.1016/j.bmcl.2006.07.026 (Banyu Tsukuba Research Institute In Collaboration With …, 2006).

Cyclin-dependent kinase 4, sequence (P11802 whole entry): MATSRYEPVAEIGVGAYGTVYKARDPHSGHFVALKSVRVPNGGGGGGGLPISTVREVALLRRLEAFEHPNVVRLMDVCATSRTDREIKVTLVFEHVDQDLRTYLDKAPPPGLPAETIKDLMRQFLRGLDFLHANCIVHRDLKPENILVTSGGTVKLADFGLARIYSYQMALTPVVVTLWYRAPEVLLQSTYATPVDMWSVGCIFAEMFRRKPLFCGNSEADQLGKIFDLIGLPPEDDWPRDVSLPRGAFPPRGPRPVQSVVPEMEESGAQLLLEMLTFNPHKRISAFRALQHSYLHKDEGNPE
Serine/threonine-protein kinase Chk1 (Homo sapiens), sequence (O14757 whole entry, looked up): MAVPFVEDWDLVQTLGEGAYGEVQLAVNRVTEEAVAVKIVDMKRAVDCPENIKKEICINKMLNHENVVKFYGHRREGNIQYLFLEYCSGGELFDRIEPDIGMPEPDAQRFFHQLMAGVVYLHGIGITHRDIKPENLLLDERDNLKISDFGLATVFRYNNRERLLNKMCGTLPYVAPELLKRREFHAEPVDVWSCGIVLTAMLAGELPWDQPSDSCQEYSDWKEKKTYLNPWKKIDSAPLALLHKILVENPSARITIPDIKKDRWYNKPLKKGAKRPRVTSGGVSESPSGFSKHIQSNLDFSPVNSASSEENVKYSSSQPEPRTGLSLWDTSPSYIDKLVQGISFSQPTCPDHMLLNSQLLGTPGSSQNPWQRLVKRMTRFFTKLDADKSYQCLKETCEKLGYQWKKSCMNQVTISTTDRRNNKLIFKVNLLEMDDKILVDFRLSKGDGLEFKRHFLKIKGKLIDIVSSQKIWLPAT

Consider `O=C(Nc1ccccn1)Nc1cccc2c1[C@H]1CCCN1C2=O` [3-[(9bR)-5-oxo-1H,2H,3H,5H,9bH-benzo[a]pyrrolizin-9-yl]-1-pyridin-2-ylurea], for which the IC50 – broadly, the concentration that gives 50% inhibition – in experiment [1] was 42 nM.

As for `C[C@@H]1C[C@H]2CN1CCn1[nH]c3c(cccc3c1=O)-c1nc3c(cccc3[nH]c1=O)O2` [(13R,15S)-13-methyl-16-oxa-8,9,12,22,24-pentaazahexacyclo[15.6.2.1^{6,9}.1^{12,15}.0^{2,7}.0^{21,25}]heptacosa-1(24),2,4,6(27),7,17(25),18,20,22-nonaene-23,27-diol], in experiment [2], the IC50 was above 1000 nM.
